We go through three molecules from patent US12275731B2, “Azaindole inhibitors of wild-type and mutant forms of LRRK2” (DANA-FARBER CANCER INSTITUTE, INC., priority 2018, dated 2025).

What all share (assay): KinomeScan profiling
What all share (format): binding

One assay has as its target CDK4-cyclinD1 (Homo sapiens, UniProt P11802). Conditions: CDK4-cyclinD1, 1 μM; read-out: % control. The procedure, abridged: (§1)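 First, compounds in DMSO are added at 1 μM to each of 468 kinase assays. Next, RLU signals are normalised between positive control (0%) and DMSO (100%). Finally, kinases under 35% are flagged active.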
The target of assay [1] is EGFR(L747-E749del, A750P) (Homo sapiens, UniProt P00533, A750P/DEL747-749). The settings on record: read-out: % control. In outline:
as §1

The next assay deals with EPHA2 (Homo sapiens, UniProt P29317). Conditions: EPHA2, 1 μM; read-out: % control. The procedure, abridged: (§2)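 Compounds were screened at 1 μM in DMSO across a 468-kinase KinomeScan panel. Binding was expressed as % control, scaled between a positive control (0%) and DMSO (100%) using luminescence signal. A value under 35% counted as active.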
In a further assay the target is ERN1 (Homo sapiens, UniProt O75460). The settings on record: ERN1, 1 μM; read-out: % control. The procedure, abridged:
as §2

In the next assay the target is T1, INSRR (Homo sapiens, UniProt P14616).
T1 construct: purchased KinomeScan®
The settings on record: read-out: % control. The procedure, abridged:
as §1

Another assay addresses T2, NEK2 (Homo sapiens, UniProt P51955).
T2 sequence (P51955 1-445): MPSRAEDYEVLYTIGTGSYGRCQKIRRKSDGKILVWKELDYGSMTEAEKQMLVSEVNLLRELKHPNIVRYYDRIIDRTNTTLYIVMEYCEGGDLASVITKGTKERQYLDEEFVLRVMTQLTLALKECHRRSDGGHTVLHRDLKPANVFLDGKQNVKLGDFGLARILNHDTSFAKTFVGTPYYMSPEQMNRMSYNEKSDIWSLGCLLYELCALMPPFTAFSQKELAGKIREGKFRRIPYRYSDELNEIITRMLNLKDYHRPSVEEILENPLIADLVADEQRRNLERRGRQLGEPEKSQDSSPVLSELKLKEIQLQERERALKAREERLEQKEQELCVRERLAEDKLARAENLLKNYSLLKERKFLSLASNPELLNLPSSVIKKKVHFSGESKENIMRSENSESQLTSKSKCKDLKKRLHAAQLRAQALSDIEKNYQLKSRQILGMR
The settings on record: NEK2, 1 μM; read-out: % control. In outline:
as §1

Another assay has as its target PHKG1 (Homo sapiens, UniProt Q16816). The settings on record: PHKG1, 1 μM; read-out: % control. In outline: as §1
The target in the next assay is T3, PIK3CA(E542K) (Homo sapiens, UniProt P42336, E542K).
T3 construct: purchased KinomeScan® (panel service)
Conditions: read-out: % control. The procedure, abridged: as §2

The target of another assay is T4, PIK3CG (Homo sapiens, UniProt P48736).
T4 construct: purchased KinomeScan® (panel service)
The settings on record: read-out: % control. The procedure, abridged:
as §1

The target of the next assay is T5, RIOK3 (Homo sapiens, UniProt O14730).
T5 sequence (O14730 1-519): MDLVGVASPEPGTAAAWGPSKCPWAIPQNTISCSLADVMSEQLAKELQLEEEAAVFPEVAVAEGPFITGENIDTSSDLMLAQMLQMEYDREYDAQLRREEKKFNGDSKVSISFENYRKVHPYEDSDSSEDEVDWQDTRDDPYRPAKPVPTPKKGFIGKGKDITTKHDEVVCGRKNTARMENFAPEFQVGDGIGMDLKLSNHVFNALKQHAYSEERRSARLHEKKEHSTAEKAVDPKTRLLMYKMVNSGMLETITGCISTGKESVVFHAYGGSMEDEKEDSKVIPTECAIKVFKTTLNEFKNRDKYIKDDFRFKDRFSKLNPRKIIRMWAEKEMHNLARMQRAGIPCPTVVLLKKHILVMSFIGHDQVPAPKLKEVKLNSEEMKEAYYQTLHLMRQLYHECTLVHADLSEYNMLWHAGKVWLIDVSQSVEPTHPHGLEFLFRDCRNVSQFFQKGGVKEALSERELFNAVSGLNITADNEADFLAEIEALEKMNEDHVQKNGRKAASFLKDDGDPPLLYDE
Conditions: RIOK3, 1 μM; read-out: % control. In outline: as §1

For assay [2], the target named is T6, RPS6KA4(Kin.Dom.2-C-terminal) (Homo sapiens, UniProt O75676).
T6 construct: RPS6KA4(Kin.Dom.2-C-terminal)
Conditions: read-out: % control. In outline:
as §1

In a further assay the target is T7, SBK1 (Homo sapiens, UniProt Q52WX2).
T7 construct: purchased KinomeScan® (panel service)
Conditions: SBK1, 1 μM; read-out: % control. In outline: as §1

The target in the next assay is T8, SGK3 (Homo sapiens, UniProt Q96BR1).
T8 construct: purchased KinomeScan® (panel service)
T8 sequence (Q96BR1 1-496): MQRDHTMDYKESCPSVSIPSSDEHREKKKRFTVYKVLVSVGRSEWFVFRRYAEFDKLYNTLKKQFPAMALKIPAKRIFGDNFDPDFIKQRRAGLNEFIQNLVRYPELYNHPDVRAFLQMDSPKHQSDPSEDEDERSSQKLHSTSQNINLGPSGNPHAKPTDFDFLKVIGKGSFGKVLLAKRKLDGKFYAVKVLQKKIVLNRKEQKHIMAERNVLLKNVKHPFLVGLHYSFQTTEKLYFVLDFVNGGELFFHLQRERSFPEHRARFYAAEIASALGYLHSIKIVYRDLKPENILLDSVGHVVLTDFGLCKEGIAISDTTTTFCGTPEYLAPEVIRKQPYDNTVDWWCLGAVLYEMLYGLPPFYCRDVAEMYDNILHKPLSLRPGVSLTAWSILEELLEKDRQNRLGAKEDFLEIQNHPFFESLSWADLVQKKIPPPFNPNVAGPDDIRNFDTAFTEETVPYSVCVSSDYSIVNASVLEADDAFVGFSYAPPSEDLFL
The settings on record: SGK3, 1 μM; read-out: % control. In outline: as §1

Sequence of EPHA2 (P29317 24-976): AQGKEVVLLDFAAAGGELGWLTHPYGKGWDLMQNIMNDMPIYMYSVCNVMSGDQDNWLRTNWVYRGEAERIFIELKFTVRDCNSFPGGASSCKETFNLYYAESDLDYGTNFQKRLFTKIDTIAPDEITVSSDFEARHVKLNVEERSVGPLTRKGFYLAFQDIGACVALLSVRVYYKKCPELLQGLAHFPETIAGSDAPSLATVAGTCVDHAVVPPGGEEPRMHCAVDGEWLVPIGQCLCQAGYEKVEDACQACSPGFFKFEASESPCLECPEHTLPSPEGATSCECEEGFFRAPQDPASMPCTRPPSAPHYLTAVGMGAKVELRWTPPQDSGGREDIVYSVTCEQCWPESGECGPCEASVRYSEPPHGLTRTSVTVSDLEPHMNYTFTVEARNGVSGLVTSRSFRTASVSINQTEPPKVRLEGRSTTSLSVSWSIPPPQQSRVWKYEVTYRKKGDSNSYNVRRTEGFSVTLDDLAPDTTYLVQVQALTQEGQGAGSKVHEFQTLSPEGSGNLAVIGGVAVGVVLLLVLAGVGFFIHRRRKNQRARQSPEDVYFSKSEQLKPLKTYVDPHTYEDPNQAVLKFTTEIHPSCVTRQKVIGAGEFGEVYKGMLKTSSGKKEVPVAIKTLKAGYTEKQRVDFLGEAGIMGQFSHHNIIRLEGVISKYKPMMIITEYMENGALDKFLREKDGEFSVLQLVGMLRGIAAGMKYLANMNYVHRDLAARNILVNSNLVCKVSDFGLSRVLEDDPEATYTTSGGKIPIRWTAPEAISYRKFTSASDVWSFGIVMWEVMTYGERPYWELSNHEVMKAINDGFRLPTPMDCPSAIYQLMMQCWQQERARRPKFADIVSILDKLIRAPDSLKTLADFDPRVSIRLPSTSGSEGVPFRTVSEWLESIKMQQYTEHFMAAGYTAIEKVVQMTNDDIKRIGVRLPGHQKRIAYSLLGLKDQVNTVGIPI
T7 sequence (Q52WX2 whole entry): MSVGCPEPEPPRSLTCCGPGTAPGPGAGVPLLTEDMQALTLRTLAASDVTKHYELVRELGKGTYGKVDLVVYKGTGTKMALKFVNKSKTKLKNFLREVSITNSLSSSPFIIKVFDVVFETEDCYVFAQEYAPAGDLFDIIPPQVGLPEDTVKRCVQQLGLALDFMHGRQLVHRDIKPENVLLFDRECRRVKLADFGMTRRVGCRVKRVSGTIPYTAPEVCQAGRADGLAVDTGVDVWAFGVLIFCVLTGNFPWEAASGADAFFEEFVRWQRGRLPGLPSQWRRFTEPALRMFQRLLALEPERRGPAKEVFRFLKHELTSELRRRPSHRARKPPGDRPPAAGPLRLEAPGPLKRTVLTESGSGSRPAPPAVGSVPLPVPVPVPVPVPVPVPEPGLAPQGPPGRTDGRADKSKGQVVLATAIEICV
T1 sequence (P14616 27-1297): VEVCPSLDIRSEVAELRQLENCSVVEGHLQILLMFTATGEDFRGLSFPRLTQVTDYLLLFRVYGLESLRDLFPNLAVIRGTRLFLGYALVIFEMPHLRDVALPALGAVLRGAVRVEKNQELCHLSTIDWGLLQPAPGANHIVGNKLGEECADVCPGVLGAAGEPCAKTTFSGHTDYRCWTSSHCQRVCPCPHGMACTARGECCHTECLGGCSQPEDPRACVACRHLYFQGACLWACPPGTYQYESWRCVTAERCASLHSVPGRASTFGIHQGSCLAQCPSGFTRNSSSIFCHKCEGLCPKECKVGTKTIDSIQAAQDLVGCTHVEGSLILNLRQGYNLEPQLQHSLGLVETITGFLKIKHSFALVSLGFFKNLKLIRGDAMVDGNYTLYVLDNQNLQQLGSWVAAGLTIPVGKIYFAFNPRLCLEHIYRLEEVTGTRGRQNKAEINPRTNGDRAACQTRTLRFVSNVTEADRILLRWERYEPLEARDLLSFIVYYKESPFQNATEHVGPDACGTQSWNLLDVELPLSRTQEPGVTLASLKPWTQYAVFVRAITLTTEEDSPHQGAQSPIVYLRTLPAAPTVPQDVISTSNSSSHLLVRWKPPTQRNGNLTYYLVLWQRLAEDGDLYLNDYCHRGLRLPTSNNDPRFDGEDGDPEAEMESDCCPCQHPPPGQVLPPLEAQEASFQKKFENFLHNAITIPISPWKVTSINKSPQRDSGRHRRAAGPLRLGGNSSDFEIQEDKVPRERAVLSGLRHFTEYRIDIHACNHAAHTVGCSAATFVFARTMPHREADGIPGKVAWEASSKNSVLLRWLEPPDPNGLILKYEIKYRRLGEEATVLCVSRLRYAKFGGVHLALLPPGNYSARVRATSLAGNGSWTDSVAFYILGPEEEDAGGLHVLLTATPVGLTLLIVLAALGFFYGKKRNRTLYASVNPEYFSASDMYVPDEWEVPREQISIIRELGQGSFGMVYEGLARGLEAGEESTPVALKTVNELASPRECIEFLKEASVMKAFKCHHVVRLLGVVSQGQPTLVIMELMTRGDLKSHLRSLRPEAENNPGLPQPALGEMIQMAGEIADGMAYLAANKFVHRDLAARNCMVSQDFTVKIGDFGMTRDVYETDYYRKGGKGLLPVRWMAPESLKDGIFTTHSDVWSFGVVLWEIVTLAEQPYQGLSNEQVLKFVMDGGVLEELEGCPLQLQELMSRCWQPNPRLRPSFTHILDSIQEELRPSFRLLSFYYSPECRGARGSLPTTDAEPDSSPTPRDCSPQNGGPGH
Sequence of ERN1 (O75460 19-977): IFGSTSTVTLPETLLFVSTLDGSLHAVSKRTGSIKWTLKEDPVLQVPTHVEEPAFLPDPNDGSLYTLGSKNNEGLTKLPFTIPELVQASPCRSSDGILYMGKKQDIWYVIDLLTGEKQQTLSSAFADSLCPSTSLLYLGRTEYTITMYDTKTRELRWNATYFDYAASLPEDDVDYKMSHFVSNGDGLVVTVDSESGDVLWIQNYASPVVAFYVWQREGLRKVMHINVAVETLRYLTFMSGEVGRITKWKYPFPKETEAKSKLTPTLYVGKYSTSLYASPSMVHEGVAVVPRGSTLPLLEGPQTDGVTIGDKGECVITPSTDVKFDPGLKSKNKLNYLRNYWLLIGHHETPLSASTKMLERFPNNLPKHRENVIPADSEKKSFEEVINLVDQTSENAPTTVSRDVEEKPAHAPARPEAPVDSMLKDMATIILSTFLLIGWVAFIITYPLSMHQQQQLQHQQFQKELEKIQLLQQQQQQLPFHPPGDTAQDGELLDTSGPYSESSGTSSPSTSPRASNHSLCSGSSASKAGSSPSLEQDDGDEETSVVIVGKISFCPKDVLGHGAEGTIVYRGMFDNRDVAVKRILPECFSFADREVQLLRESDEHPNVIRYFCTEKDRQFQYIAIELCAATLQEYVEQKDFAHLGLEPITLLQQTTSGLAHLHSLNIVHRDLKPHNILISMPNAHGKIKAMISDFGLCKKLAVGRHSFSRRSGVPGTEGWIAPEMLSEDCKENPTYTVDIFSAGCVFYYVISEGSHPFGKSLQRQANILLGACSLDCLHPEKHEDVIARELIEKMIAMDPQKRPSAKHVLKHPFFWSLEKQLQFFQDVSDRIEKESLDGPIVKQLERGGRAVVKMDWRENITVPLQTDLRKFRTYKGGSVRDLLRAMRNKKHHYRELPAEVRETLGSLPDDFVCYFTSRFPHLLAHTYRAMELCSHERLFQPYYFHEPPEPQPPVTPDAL
T3 sequence (P42336 whole entry E542K): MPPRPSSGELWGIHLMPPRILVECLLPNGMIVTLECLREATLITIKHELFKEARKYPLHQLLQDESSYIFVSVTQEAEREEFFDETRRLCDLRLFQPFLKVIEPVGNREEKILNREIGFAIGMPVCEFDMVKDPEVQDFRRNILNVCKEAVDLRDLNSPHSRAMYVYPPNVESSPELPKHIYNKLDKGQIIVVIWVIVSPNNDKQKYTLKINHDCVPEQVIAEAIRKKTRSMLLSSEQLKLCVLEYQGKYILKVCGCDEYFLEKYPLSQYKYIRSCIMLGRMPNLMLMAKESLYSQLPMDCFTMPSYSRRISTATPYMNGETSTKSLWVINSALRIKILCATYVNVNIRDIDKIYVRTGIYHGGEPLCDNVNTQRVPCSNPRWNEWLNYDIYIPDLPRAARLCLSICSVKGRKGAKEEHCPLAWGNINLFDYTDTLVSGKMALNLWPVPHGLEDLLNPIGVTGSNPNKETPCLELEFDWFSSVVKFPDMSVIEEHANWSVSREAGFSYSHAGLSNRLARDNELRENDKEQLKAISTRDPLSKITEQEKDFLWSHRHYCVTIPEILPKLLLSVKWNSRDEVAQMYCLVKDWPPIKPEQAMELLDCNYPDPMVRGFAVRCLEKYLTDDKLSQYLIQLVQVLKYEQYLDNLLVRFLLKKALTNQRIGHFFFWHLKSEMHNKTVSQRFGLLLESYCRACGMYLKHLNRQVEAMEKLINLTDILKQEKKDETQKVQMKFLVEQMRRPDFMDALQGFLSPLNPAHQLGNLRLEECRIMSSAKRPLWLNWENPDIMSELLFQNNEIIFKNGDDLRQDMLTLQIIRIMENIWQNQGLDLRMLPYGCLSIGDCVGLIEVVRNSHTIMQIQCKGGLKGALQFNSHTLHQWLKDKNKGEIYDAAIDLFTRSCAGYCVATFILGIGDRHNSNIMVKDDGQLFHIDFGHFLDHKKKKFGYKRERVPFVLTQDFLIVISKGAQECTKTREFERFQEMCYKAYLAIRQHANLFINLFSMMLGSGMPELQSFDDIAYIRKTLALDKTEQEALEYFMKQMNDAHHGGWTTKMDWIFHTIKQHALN
Sequence of PHKG1 (Q16816 whole entry): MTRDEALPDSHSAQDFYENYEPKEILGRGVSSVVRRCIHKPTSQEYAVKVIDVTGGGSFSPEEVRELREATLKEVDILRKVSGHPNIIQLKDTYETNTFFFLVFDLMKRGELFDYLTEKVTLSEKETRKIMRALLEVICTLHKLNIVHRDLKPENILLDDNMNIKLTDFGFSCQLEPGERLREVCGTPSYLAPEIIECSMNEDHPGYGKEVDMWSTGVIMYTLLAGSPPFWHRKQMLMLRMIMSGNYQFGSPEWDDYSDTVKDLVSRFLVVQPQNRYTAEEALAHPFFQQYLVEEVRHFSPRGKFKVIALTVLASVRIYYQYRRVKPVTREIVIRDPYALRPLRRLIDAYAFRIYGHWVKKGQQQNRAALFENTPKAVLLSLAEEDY

For the molecule `CNc1c(-c2ccc(C(=O)N3CCC(N4CCOCC4)CC3)cc2)cnc2[nH]cc(Cl)c12` [Compound 96, (4-(3-chloro-4-(methylamino)-1H-pyrrolo[2,3-b]pyridin-5-yl)phenyl)(4-morpholinopiperidin-1-yl)methanone], the remaining binding at 1 µM worked out at 73% at CDK4-cyclinD1; 100% in [1]; 100% on EPHA2; 73% on ERN1; 96% on INSRR; 100% at NEK2. The remaining binding at 1 µM on PHKG1 amounted to 86%; at PIK3CA(E542K) it was 100%; at PIK3CG, 100%; on RIOK3 it was 36%; in [2] it was 65%; on SBK1, 63%. Moreover, the remaining binding at 1 µM on SGK3 turned out to be 48%.

Turning to `O=C(c1ccc(-c2cnc3[nH]cc(Cl)c3c2NC2CCCC2)cc1)N1CCC(N2CCOCC2)CC1` [Compound 101, (4-(3-chloro-4-(cyclopentylamino)-1H-pyrrolo[2,3-b]pyridin-5-yl)phenyl)(4-morpholinopiperidin-1-yl)methanone], the remaining binding at 1 µM at CDK4-cyclinD1 is 100%; in assay [1], 88%; on EPHA2, 30%; on ERN1, 86%; at INSRR, 84%; at NEK2, 100%. The remaining binding at 1 µM at PHKG1 was determined as 87%; at PIK3CA(E542K) it was 98%; on PIK3CG it was 95%; on RIOK3, 50%; in assay [2], 99%; on SBK1, 67%. In addition, on SGK3, the remaining binding at 1 µM was found to be 96%.

With `CNc1c(-c2cnn([C@H]3CCN(C(C)=O)C[C@@H]3F)c2)cnc2[nH]cc(Cl)c12` [Compound 77, 1-((3S,4S)-4-(4-(3-chloro-4-(methylamino)-1H-pyrrolo[2,3-b]pyridin-5-yl)-1H-pyrazol-1-yl)-3-fluoropiperidin-1-yl)ethan-1-one], the remaining binding at 1 µM at CDK4-cyclinD1 was determined as 74%; in assay [1] it was 100%; on EPHA2 it was 96%; on ERN1, 56%; on INSRR, 92%; on NEK2, 100%. The remaining binding at 1 µM on PHKG1 was found to be 100%; on PIK3CA(E542K) it was 100%; at PIK3CG, 99%; at RIOK3, 24%; in [2], 90%; on SBK1 it was 44%. Besides, at SGK3, the remaining binding at 1 µM is 37%.
